Source: US5502035A, “N-terminus modified analogs of LHRH” (Tap Holdings Inc., priority 1994, dated 1996)
Non-standard residues stand in square brackets, D forms with d. Residues, ends and D or L forms follow the SMILES beside them. Groups on a side chain read outwards from the residue. *: point of attachment. NMePhe(4-NO2) = CN[C@@H](Cc1ccc([N+](=O)[O-])cc1)C(=O)O; Shikimoyl = O=C(C1=C[C@@H](O)[C@@H](O)[C@H](O)C1)*; Quinoline3carbonyl = O=C(c1cnc2ccccc2c1)*; dPhe(4-Cl) = N[C@H](Cc1ccc(Cl)cc1)C(=O)O; d2Nal = N[C@H](Cc1ccc2ccccc2c1)C(=O)O; Lys(iPr) = CC(C)NCCCC[C@H](N)C(=O)O; NMeY = CN[C@@H](Cc1ccc(O)cc1)C(=O)O; NMeF = CN[C@@H](Cc1ccccc1)C(=O)O; hArg = N=C(N)NCCCC[C@H](N)C(=O)O; d3Pal = N[C@H](Cc1cccnc1)C(=O)O; Nicotinoyl = O=C(c1cccnc1)*; 2Furoyl = O=C(c1ccco1)*; Aze = O=C(O)[C@@H]1CCN1; azaGly = NNC(=O)O; βAla = NCCC(=O)O

Target: T1, LHRH (Rattus norvegicus, UniProt P30969)
T1 construct: endogenous in cells; host or cells: rat pituitary cells (own knowledge of the cited Haviv 1989 method)
T1 sequence (P30969 1-327): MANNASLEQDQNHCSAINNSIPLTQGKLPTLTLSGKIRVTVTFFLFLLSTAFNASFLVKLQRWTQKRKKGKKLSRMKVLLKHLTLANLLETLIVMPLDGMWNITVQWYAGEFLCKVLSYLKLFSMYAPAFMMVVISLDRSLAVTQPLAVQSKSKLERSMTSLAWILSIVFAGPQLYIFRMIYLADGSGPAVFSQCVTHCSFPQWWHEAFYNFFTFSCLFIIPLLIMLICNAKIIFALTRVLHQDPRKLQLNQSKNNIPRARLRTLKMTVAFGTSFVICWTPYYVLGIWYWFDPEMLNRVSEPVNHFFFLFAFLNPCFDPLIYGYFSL
Experiment: in vitro test for LHRH antagonist potency (pA2)
Assay type: cell-based
Settings: negative logarithm of the antagonist concentration required to shift the response curve produced by the agonist leuprolide to two-fold higher concentration
How it was run: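 Rat LHRH receptor in vitro functional test; pA2 = negative log of the antagonist concentration shifting the leuprolide agonist response curve to two-fold higher concentration.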

| SMILES | Kb |
| --- | --- |
| CC(C)C[C@H](NC(=O)[C@@H](CCCCNC(=O)c1cccnc1)NC(=O)[C@H](Cc1ccc(O)cc1)N(C)C(=O)[C@H](CO)NC(=O)[C@@H](Cc1cccnc1)NC(=O)[C@@H](Cc1ccc(Cl)cc1)NC(=O)[C@@H](Cc1ccc2ccccc2c1)NC(=O)CNC(=O)c1cccnc1)C(=O)N[C@@H](CCCCNC(=N)N)C(=O)N1CCC[C@H]1C(=O)N[C@H](C)C(N)=O [Example 25f, N-Nicotinyl-Gly-D2Nal-D4ClPhe-D3Pal-Ser-NMeTyr-DLys(Nicotinyl)-Leu-Harg-Pro-DAlaNH2] (Nicotinoyl-G[d2Nal][dPhe(4-Cl)][d3Pal]S[NMeY][dK](Nicotinoyl)L[hArg]P[dA]-NH2) | 0.0234 nM |
| CC(C)C[C@H](NC(=O)[C@@H](CCCCNC(=O)C1=C[C@@H](O)[C@@H](O)[C@H](O)C1)NC(=O)[C@H](Cc1ccc(O)cc1)N(C)C(=O)[C@H](CO)NC(=O)[C@@H](Cc1cccnc1)NC(=O)[C@@H](Cc1ccc(Cl)cc1)NC(=O)[C@@H](Cc1ccc2ccccc2c1)NC(=O)CNC(=O)c1cnc2ccccc2c1)C(=O)N[C@@H](CCCCNC(=N)N)C(=O)N1CCC[C@H]1C(=O)N[C@H](C)C(N)=O [Example 25g, N-(3-Quinolinylcarbonyl)-Gly-D2Nal-D4ClPhe-D3Pal-Ser-NMeTyr-DLys(Shikimyl)-Leu-Harg-Pro-DAlaNH2] (Quinoline3carbonyl-G[d2Nal][dPhe(4-Cl)][d3Pal]S[NMeY][dK](Shikimoyl)L[hArg]P[dA]-NH2) | 0.0324 nM |
| CC(C)C[C@H](NC(=O)[C@@H](CCCCNC(=O)C1=C[C@@H](O)[C@@H](O)[C@H](O)C1)NC(=O)[C@H](Cc1ccccc1)N(C)C(=O)[C@H](CO)NC(=O)[C@@H](Cc1cccnc1)NC(=O)[C@@H](Cc1ccc(Cl)cc1)NC(=O)[C@@H](Cc1ccc2ccccc2c1)NC(=O)CNC(=O)c1cccnc1)C(=O)N[C@@H](CCCCNC(=N)N)C(=O)N1CCC[C@H]1C(=O)N[C@H](C)C(N)=O [Example 26a, N-Nicotinyl-Gly-D2Nal-D4ClPhe-D3Pal-Ser-NMePhe-DLys(Shik)-Leu-Harg-Pro-DAlaNH2] (Nicotinoyl-G[d2Nal][dPhe(4-Cl)][d3Pal]S[NMeF][dK](Shikimoyl)L[hArg]P[dA]-NH2) | 0.0275 nM |
| CC(C)C[C@H](NC(=O)[C@@H](CCCCNC(=O)C1=C[C@@H](O)[C@@H](O)[C@H](O)C1)NC(=O)[C@H](Cc1ccc([N+](=O)[O-])cc1)N(C)C(=O)[C@H](CO)NC(=O)[C@@H](Cc1cccnc1)NC(=O)[C@@H](Cc1ccc(Cl)cc1)NC(=O)[C@@H](Cc1ccc2ccccc2c1)NC(=O)CNC(=O)c1cccnc1)C(=O)N[C@@H](CCCCNC(=N)N)C(=O)N1CCC[C@H]1C(=O)N[C@H](C)C(N)=O [Example 26b, N-Nicotinyl-Gly-D2Nal-D4ClPhe-D3Pal-Ser-NMePhe(NO2)-DLys(Shik)-Leu-Harg-Pro-DAlaNH2] (Nicotinoyl-G[d2Nal][dPhe(4-Cl)][d3Pal]S[NMePhe(4-NO2)][dK](Shikimoyl)L[hArg]P[dA]-NH2) | 0.0437 nM |
| CC(C)C[C@H](NC(=O)[C@@H](CCCCNC(=O)c1cccnc1)NC(=O)[C@H](Cc1ccc(O)cc1)N(C)C(=O)[C@H](CO)NC(=O)[C@@H](Cc1cccnc1)NC(=O)[C@@H](Cc1ccc(Cl)cc1)NC(=O)[C@@H](Cc1ccc2ccccc2c1)NC(=O)CNC(=O)c1cccnc1)C(=O)N[C@@H](CCCNC(=N)N)C(=O)N1CCC[C@H]1C(=O)N[C@H](C)C(N)=O [Example 27a, N-Nicotinyl-Gly-D2Nal-D4ClPhe-D3Pal-Ser-NMeTyr-DLys(Nic)-Leu-Arg-Pro-DAlaNH2] (Nicotinoyl-G[d2Nal][dPhe(4-Cl)][d3Pal]S[NMeY][dK](Nicotinoyl)LRP[dA]-NH2) | 0.00776 nM |
| CC(C)C[C@H](NC(=O)[C@@H](CCCCNC(=O)c1cccnc1)NC(=O)[C@H](Cc1ccc(O)cc1)N(C)C(=O)[C@H](CO)NC(=O)[C@@H](Cc1cccnc1)NC(=O)[C@@H](Cc1ccc(Cl)cc1)NC(=O)[C@@H](Cc1ccc2ccccc2c1)NC(=O)CNC(=O)C1=C[C@@H](O)[C@@H](O)[C@H](O)C1)C(=O)N[C@@H](CCCNC(=N)N)C(=O)N1CC[C@H]1C(=O)N[C@H](C)C(N)=O [Example 27c, N-Shikimyl-Gly-D2Nal-D4ClPhe-D3Pal-Ser-NMeTyr-DLys(Nic)-Leu-Arg-Aze-DAlaNH2] (Shikimoyl-G[d2Nal][dPhe(4-Cl)][d3Pal]S[NMeY][dK](Nicotinoyl)LR[Aze][dA]-NH2) | 0.0977 nM |
| CC(C)C[C@H](NC(=O)[C@@H](CCCCNC(=O)C1=C[C@@H](O)[C@@H](O)[C@H](O)C1)NC(=O)[C@H](Cc1ccc(O)cc1)N(C)C(=O)[C@H](CO)NC(=O)[C@@H](Cc1cccnc1)NC(=O)[C@@H](Cc1ccc(Cl)cc1)NC(=O)[C@@H](Cc1ccc2ccccc2c1)NC(=O)CCNC(=O)c1cccnc1)C(=O)N[C@@H](CCCNC(=N)N)C(=O)N1CCC[C@H]1C(=O)N[C@H](C)C(N)=O [Example 27d, N-Nicotinyl-3-Aminopropionyl-D2Nal-D4ClPhe-D3Pal-Ser-NMeTyr-DLys(Shikimyl)-Leu-Arg-Pro-DAlaNH 2] ({Nicotinoyl-βAla}-[d2Nal][dPhe(4-Cl)][d3Pal]S[NMeY][dK](Shikimoyl)LRP[dA]-NH2) | 0.00178 nM |
| CC(C)C[C@H](NC(=O)[C@@H](CCCCNC(=O)C1=C[C@@H](O)[C@@H](O)[C@H](O)C1)NC(=O)[C@H](Cc1ccc(O)cc1)N(C)C(=O)[C@H](CO)NC(=O)[C@@H](Cc1cccnc1)NC(=O)[C@@H](Cc1ccc(Cl)cc1)NC(=O)[C@@H](Cc1ccc2ccccc2c1)NC(=O)CCNC(=O)C1=C[C@@H](O)[C@@H](O)[C@H](O)C1)C(=O)N[C@@H](CCCNC(=N)N)C(=O)N1CCC[C@H]1C(=O)N[C@H](C)C(N)=O [Example 27e, N-Shikimyl-3-Aminopropionyl-D2Nal-D4ClPhe-D3Pal-Ser-NMeTyr-DLys(Shik)-Leu- Arg-Pro-DAlaNH2] ({Shikimoyl-βAla}-[d2Nal][dPhe(4-Cl)][d3Pal]S[NMeY][dK](Shikimoyl)LRP[dA]-NH2) | 0.0347 nM |
| CC(C)C[C@H](NC(=O)[C@@H](CCCCNC(=O)C1=C[C@@H](O)[C@@H](O)[C@H](O)C1)NC(=O)[C@H](Cc1ccc(O)cc1)N(C)C(=O)[C@H](CO)NC(=O)[C@@H](Cc1cccnc1)NC(=O)[C@@H](Cc1ccc(Cl)cc1)NC(=O)[C@@H](Cc1ccc2ccccc2c1)NC(=O)CCNC(=O)c1cccnc1)C(=O)N[C@@H](CCCCNC(=N)N)C(=O)N1CCC[C@H]1C(=O)N[C@H](C)C(N)=O [Example 28, N-Nicotinyl-3Aminopropionyl-D2Nal-D4ClPhe-D3Pal-Ser-NMeTyr-DLys(Shik)-Leu-Harg-Pro-DAlaNH2] ({Nicotinoyl-βAla}-[d2Nal][dPhe(4-Cl)][d3Pal]S[NMeY][dK](Shikimoyl)L[hArg]P[dA]-NH2) | 0.00977 nM |
| CC(C)C[C@H](NC(=O)[C@@H](CCCCNC(=O)CNC(=O)c1cccnc1)NC(=O)[C@H](Cc1ccc(O)cc1)N(C)C(=O)[C@H](CO)NC(=O)[C@@H](Cc1cccnc1)NC(=O)[C@@H](Cc1ccc(Cl)cc1)NC(=O)[C@@H](Cc1ccc2ccccc2c1)NC(=O)C1=C[C@@H](O)[C@@H](O)[C@H](O)C1)C(=O)N[C@@H](CCCCNC(C)C)C(=O)N1CCC[C@H]1C(=O)N[C@H](C)C(N)=O [Example 29, N-Shikimyl-D2Nal-D4ClPhe-D3Pal-Ser-NMeTyr-DLys(GlyNic)-Leu-Lys(Isp)-Pro-DAlaNH2] (Shikimoyl-[d2Nal][dPhe(4-Cl)][d3Pal]S[NMeY][dK]([Gly-Nicotinoyl])L[Lys(iPr)]P[dA]-NH2) | 0.0257 nM |
| CC(C)C[C@H](NC(=O)[C@@H](CCCCNC(=O)NNC(=O)c1cccnc1)NC(=O)[C@H](Cc1ccc(O)cc1)N(C)C(=O)[C@H](CO)NC(=O)[C@@H](Cc1cccnc1)NC(=O)[C@@H](Cc1ccc(Cl)cc1)NC(=O)[C@@H](Cc1ccc2ccccc2c1)NC(=O)C1=C[C@@H](O)[C@@H](O)[C@H](O)C1)C(=O)N[C@@H](CCCCNC(C)C)C(=O)N1CCC[C@H]1C(=O)N[C@H](C)C(N)=O [Example 30b, N-Shik-D2Nal-D4ClPhe-D3Pal-Ser-NMeTyr-DLys(Azagly-Nic)-Leu-Lys(Isp)-Pro-DAlaNH2] (Shikimoyl-[d2Nal][dPhe(4-Cl)][d3Pal]S[NMeY][dK]([azaGly-Nicotinoyl])L[Lys(iPr)]P[dA]-NH2) | 0.0295 nM |
| CC(C)C[C@H](NC(=O)[C@@H](CCCCNC(=O)NNC(=O)c1ccco1)NC(=O)[C@H](Cc1ccc(O)cc1)N(C)C(=O)[C@H](CO)NC(=O)[C@@H](Cc1cccnc1)NC(=O)[C@@H](Cc1ccc(Cl)cc1)NC(=O)[C@@H](Cc1ccc2ccccc2c1)NC(=O)C1=C[C@@H](O)[C@@H](O)[C@H](O)C1)C(=O)N[C@@H](CCCCNC(C)C)C(=O)N1CCC[C@H]1C(=O)N[C@H](C)C(N)=O [Example 30c, N-Shik-D2Nal-D4ClPhe-D3Pal-Ser-NMeTyr-DLys(Azagly-2Fur)-Leu-Lys(Isp)-Pro-DAlaNH2] (Shikimoyl-[d2Nal][dPhe(4-Cl)][d3Pal]S[NMeY][dK]([azaGly-2Furoyl])L[Lys(iPr)]P[dA]-NH2) | 0.038 nM |
| CC(C)C[C@H](NC(=O)[C@@H](CCCCNC(=O)NNC(=O)c1cccnc1)NC(=O)[C@H](Cc1ccc(O)cc1)N(C)C(=O)[C@H](CO)NC(=O)[C@@H](Cc1cccnc1)NC(=O)[C@@H](Cc1ccc(Cl)cc1)NC(=O)[C@@H](Cc1ccc2ccccc2c1)NC(=O)NNC(=O)c1cccnc1)C(=O)N[C@@H](CCCCNC(C)C)C(=O)N1CCC[C@H]1C(=O)N[C@H](C)C(N)=O [Example 31, N-Nicotinyl-Azagly-D2Nal-D4ClPhe-D3Pal-Ser-NMeTyr-DLys(Azagly-Nic)-Leu-Lys(Isp)-Pro-DAlaNH2] (Nicotinoyl-[azaGly][d2Nal][dPhe(4-Cl)][d3Pal]S[NMeY][dK]([azaGly-Nicotinoyl])L[Lys(iPr)]P[dA]-NH2) | 0.0195 nM |
